Where two headings read alike, the source gives them in different places.
Assays:
tubulin = assay: Inhibition of [3H]colchicine binding to tubulin; set-up: species or system bovine; settings: for Inhibition of colchicine binding % inhibition: 1.0 μM tubulin, 5.0 μM [3H]colchicine, 5.0 μM inhibitor, 10 min at 37° C.
Description: Reaction mixtures contained 0.1 mg/mL (1.0 μM) tubulin, 5.0 μM [3H]colchicine, and 5.0 μM inhibitor and were incubated for 10 min at 37° C.

A498 = assay: Human cancer cell growth inhibition, renal A498; assay type: cell-based
bovine brain tubulin = assay: Inhibition of tubulin polymerization; assay type: biochemical; settings: for IC50: 10 μM tubulin, extent of assembly after 20 min at 30° C., read-out: Inhibition of tubulin polymerization IC50, μM ± SD; for activity against tubulin / in inhibiting assembly (in words): purified tubulin
Description: Electrophoretically homogeneous bovine brain tubulin was purified from bovine brain as described previously (Hamel, et al., Separation of active tubulin and microtubule-associated proteins by ultracentrifugation and isolation of a component causing the formation of microtubule bundles, Biochemistry 1984, 23, 4173-4184). Reaction mixtures (0.24 mL during preincubation, 0.25 mL during incubation, with all concentrations referring to the final volume) contained 0.8 M monosodium glutamate (taken from 2.0 M stock solution adjusted to pH 6.6 with Hcl), 1.0 mg/mL (10 μM) tubulin, 4% (v/v) dimethyl sulfoxide, and varying concentrations of drug. Samples were incubated for 15 min at 30° C. and chilled on ice. GTP, required for polymerization, was added in 10 μL to a final concentration of 0.4 mM. Samples were transferred to cuvettes held at 0° C. by electronic temperature controllers in GILFORD model 250 recording spectrophotometers. Baselines were established, and the reaction was initiated by a jump (approximately 1 min) to 30° C. Extent of assembly after 20 min was the parameter used to determine IC50 values. […] In most experiments, four spectrophotometers were used, with two control reaction mixtures.

OVCAR-3 = assay: Human cancer cell growth inhibition, ovarian OVCAR-3; assay type: cell-based
NCI-H460 = assay: Human cancer cell growth inhibition, lung-NSC NCI-H460; assay type: cell-based
[1] = system: P388 Lymphocytic Leukemia Cell Line; assay: Murine P388 lymphocytic leukemia cell line growth inhibition; assay type: cell-based
KM20L2 = assay: Human cancer cell growth inhibition, colon KM20L2; assay type: cell-based
[2] = system: NCI 60 Cell-Line Human Tumor Screen; assay: NCI 60 cell-line human tumor screen; assay type: cell-based; settings: read-out: Mean Panel GI50 (±S.D)
Excerpt: (§1) Compounds 3b, 3d, 1d, and 4a-f were comparatively evaluated in the NCI 60 cell-line human tumor screen (Boyd, Status of the NCI preclinical antitumor drug discovery screen. Implications for selection of new agents for clinical trial, CANCER: Principles and Practices of Oncology Updates, DeVita, et al. (Eds.), Lippincott: Philadelphia, 1989; Vol. 10, No. 3, pp. 1-12; Boyd, The Future of New Drug Development. Section I. Introduction to Cancer Therapy, Current Therapy in Oncology, Niederhuber, (Ed.), B. C. Decker, Inc.: Philadelphia, 1993; pp. 11-22; Boyd, et al., Data display and analysis strategies from NCI disease-oriented in vitro antitumor drug screen. In Cytotoxic Anticancer Drugs: Models and Concepts for Drug Discovery and Development, Valeriote, et al. (Eds.), Kluwer Academic Publishers: Amsterdam, 1992; pp. 11-34; Stinson, et al., Morphological and Immunocytochemical Characteristics of Human Tumor Cell Lines for Use in a Disease-Oriented Anticancer Drug Screen, Anticancer Res. 1992, 12,-1035-1054; Boyd, et al., Some Practical Considerations and Applications of the NCI in vitro Drug Discovery Screen, Drug Dev. Res. 1995, 34, 91-109).

SF-295 = assay: Human cancer cell growth inhibition, CNS SF-295; assay type: cell-based
SK-MEL-5 = assay: Human cancer cell growth inhibition, melanoma SK-MEL-5; assay type: cell-based
[3] = Solubility in distilled water; assay type: physicochemical; settings: distilled water at 25° C.
Description: The deprotected phosphate (0.44 g, 1.10 mmol) was dissolved in anhydrous methanol (15 mL) and sodium methoxide ([…], 2.20 mmol) was added at room temperature. The cloudy solution was stirred for 20 hours and the reaction mixture was concentrated to a white solid that was washed with 2-propanol and recrystallized (3×) from water-acetone. The phenstatin prodrug (3d, 0.38g, 78% yield) was collected by filtration and found to give; LRFAB m/z 443.02 (M+H+), calculated 443.048, EIMS m/z (peak height) 318 (100%, M+—PO3Na2+H), 303 (12%), 195 (20%), 151 (23%); ^1H-NMR (D2O) δH 7.644 (1H, t, J2/61.8 Hz, H-2), 7.366 (1H, dd, J6/2 1.8 Hz, J6/58.5 Hz, H-6), 7.006 (1H, d, J5/6 8.5 Hz, H-5), 6.933 (2H, s, H-2′, 6′), 3.844 (3H, s, 4′-OCH3), 3.748 (6H, s, 3′, 5′-OCH3) 3.734 (3H, s, 4OCH3); ^13C-NMR (D2O, reference to CDCl3) δC 193.5 (C═O), 151.1; and ^31P-NMR (D2O, decoupled, […]) δP −1.965.

CNS U251 = assay: Human cancer cell line inhibition, CNS U251; assay type: cell-based; settings: U-251
Excerpt: as §1

pharynx FADU = assay: Human cancer cell line inhibition, pharynx FADU; assay type: cell-based
Excerpt: as §1

prostate DU-145 = assay: Human cancer cell line inhibition, prostate DU-145; assay type: cell-based
Excerpt: as §1

[4] = mean over NCI 60 cell-line panel, tested in triplicate
[5] = Homo sapiens, mean over NCI 60 cell-line panel, tested in triplicate

SMILES	Inhibition of colchicine binding % inhibition (tubulin)	IC50 (bovine brain tubulin)	activity against tubulin / in inhibiting assembly (in words) (bovine brain tubulin)	melting point	further results
COc1ccc(/C=C\c2cc(OC)c(OC)c(OC)c2)cc1O [Compound 1b, combretastatin A-4, reference compound]	97%				
COc1ccc(/C=C\c2cc(OC)c(OC)c(OC)c2)cc1OP(=O)([O-])[O-].[Na+].[Na+] [Compound 1d, combretastatin A4 sodium phosphate, reference compound]	4%	> 80 µM	totally inactive		GI50 (A498): 0.041 µg/mL; GI50 (OVCAR-3): 0.023 µg/mL; GI50 (NCI-H460): 0.029 µg/mL; GI50 [1]: 0.0004 µg/mL; GI50 (KM20L2): 0.34 µg/mL; GI50 [2, 4]: 0.0128 µM; GI50 (SF-295): 0.036 µg/mL; GI50 (SK-MEL-5): 0.041 µg/mL
COc1ccc(C=Cc2cc(OC)c(OC)c(OC)c2)cc1 [Compound 1e, reference compound]	97%	1.3 ± 0.2 µM			
COc1ccc(C(=O)c2cc(OC)c(OC)c(OC)c2)cc1OP(=O)([O-])[O-].[Na+].[Na+] [Compound 3d, Disodium Phenstatin 3-O-phosphate]	37%	21 ± 3 µM	weak activity		GI50 (A498): 0.05 µg/mL; activity as an inhibitor of colchicine binding (in words) (tubulin): moderate activity; activity relative to phenstatin in colchicine binding assay (tubulin; relative to phenstatin 3b): about 40%; GI50 (OVCAR-3): 0.0025 µg/mL; GI50 (NCI-H460): 0.035 µg/mL; GI50 [1]: <0.001 µg/mL; solubility [3]: 30 mg/mL; GI50 (KM20L2): 0.27 µg/mL; GI50 [2, 4]: 0.0733 µM; GI50 (SF-295): 0.012 µg/mL; GI50 (SK-MEL-5): 0.0047 µg/mL
COc1ccc(C(=O)c2cc(OC)c(OC)c(OC)c2)cc1OC(C)=O [Compound 3e, Phenstatin Acetate]	71%	3.5 ± 0.5 µM		164 to 165 °C	GI50 (CNS U251): 0.0039 µg/mL; G50 (pharynx FADU): 0.0055 µg/mL; GI50 (prostate DU-145): 0.0029 µg/mL
COc1cc(C(=O)c2ccc3c(c2)OCO3)cc(OC)c1OC [Compound 4a, 3,4,5-trimethoxy-3′,4′-methylenedioxybenzophenone]	0%	15 ± 2 µM	only weak activity	124 to 125 °C	GI50 [2, 5]: 2.7 µM
COc1cc(C(=O)c2cc(C)cc(C)c2)cc(OC)c1OC [Compound 4b, 3,4,5-trimethoxy-3′,5′-dimethylbenzophenone]	7%	11 ± 2 µM		104 to 105 °C	further fold drop in activity against tubulin (bovine brain tubulin; relative to 4d): 3 fold; GI50 [2, 5]: 3.48 µM
COc1ccc(C(=O)c2cc(OC)c(OC)c(OC)c2)cc1OC [Compound 4c, 3,3′,4,4′,5-pentamethoxybenzophenone]	1%	15 ± 2 µM			GI50 [2, 5]: 5.11 µM
COc1cc(OC)cc(C(=O)c2cc(OC)c(OC)c(OC)c2)c1 [Compound 4d, 3,3′,4,5,5′-pentamethoxybenzophenone]	58%	3.6 ± 0.8 µM		121 to 122 °C	fold less potent than phenstatin in inhibiting tubulin polymerization (bovine brain tubulin; relative to phenstatin 3b): 3-4 fold; GI50 ([2]; Homo sapiens): 0.543 µM
COc1cc(C(=O)c2cc(Cl)cc(Cl)c2)cc(OC)c1OC [Compound 4e, 3,5-dichloro-3′,4′,5′-trimethoxybenzophenone]			almost inert	131 to 132 °C	GI50 [2, 5]: 5.12 µM
COc1cc(C(=O)c2cc(F)cc(F)c2)cc(OC)c1OC [Compound 4f, 3,5-difluoro-3′,4′,5′-trimethoxybenzophenone]	0%	39 ± 7 µM	almost inert	121 to 123 °C	GI50 ([2]; Homo sapiens): 4.94 µM
COc1ccc(Cc2cc(OC)c(OC)c(OC)c2)cc1O [Compound 7a, reference compound]	65%	3.3 ± 0.5 µM			
COc1ccc(Cc2cc(OC)c(OC)c(OC)c2)cc1 [Compound 7b, reference compound]	56%	4.4 ± 0.2 µM			
COc1ccc(CCc2cc(OC)c(OC)c(OC)c2)cc1O [Compound 8a, reference compound]	77%	2.1 ± 0.3 µM			
COc1ccc(CCc2cc(OC)c(OC)c(OC)c2)cc1 [Compound 8b, reference compound]	54%	3.2 ± 0.3 µM			
